Results reported in PubChem BioAssay (NCI).
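Protocol summary: plate cells (96-well), add compound at 5 concentrations, incubate 48 h, interpolate endpoints linearly. GI50 marks 50% less growth. At the TGI there is no net growth.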

Legend:
Test in all cases: inhibition of tumour cell growth, NCI panel, 48 h
[1] = tested on: 786-0 renal
[2] = tested on: A498 renal
[3] = tested on: A549 NSCLC
[4] = tested on: ACHN renal
[5] = tested on: BT-549 breast
[6] = tested on: CAKI-1 renal
[7] = tested on: CCRF-CEM leukemia
[8] = tested on: COLO 205 colon
[9] = tested on: DU-145 prostate
[10] = tested on: EKVX NSCLC
[11] = tested on: HCC-2998 colon
[12] = tested on: HCT-116 colon
[13] = tested on: HCT-15 colon
[14] = tested on: HL-60(TB) leukemia
[15] = tested on: HOP-62 NSCLC
[16] = tested on: HOP-92 NSCLC
[17] = tested on: HS 578T breast
[18] = tested on: HT29 colon
[19] = tested on: IGROV1 ovarian
[20] = tested on: K-562 leukemia
[21] = tested on: KM12 colon
[22] = tested on: LOX IMVI melanoma
[23] = tested on: M14 melanoma
[24] = tested on: MALME-3M melanoma
[25] = tested on: MCF7 breast
[26] = tested on: MDA-MB-231 breast
[27] = tested on: MDA-MB-435
[28] = tested on: MDA-MB-468 breast
[29] = tested on: MOLT-4 leukemia
[30] = tested on: NCI-H226 lung
[31] = tested on: NCI-H23 lung
[32] = tested on: NCI-H460 lung
[33] = tested on: NCI-H522 lung
[34] = tested on: NCI/ADR-RES ovarian
[35] = tested on: OVCAR-3 ovarian
[36] = tested on: OVCAR-4 ovarian
[37] = tested on: OVCAR-5 ovarian
[38] = tested on: OVCAR-8 ovarian
[39] = tested on: PC-3 prostate
[40] = tested on: RPMI-8226 leukemia
[41] = tested on: RXF 393 renal
[42] = tested on: SF-268 CNS
[43] = tested on: SF-295 CNS
[44] = tested on: SF-539 CNS
[45] = tested on: SK-MEL-2 melanoma
[46] = tested on: SK-MEL-28 melanoma
[47] = tested on: SK-MEL-5 melanoma
[48] = tested on: SK-OV-3 ovarian
[49] = tested on: SN12C renal
[50] = tested on: SNB-19 CNS
[51] = tested on: SNB-75 CNS
[52] = tested on: SR leukemia
[53] = tested on: SW-620 colon
[54] = tested on: T-47D breast
[55] = tested on: TK-10 renal
[56] = tested on: U251 CNS
[57] = tested on: UACC-257 melanoma
[58] = tested on: UACC-62 melanoma
[59] = tested on: UO-31 renal

Which results are given for `O=C(CSc1nnc(-c2ccc(-c3nc4ccc(Cl)cc4[nH]3)cc2)o1)Nc1ccc(Cl)cc1`?
GI50 [1]: 2.21 µM; TGI [1]: 5.57 µM; GI50 [2]: 16.2 µM; TGI [2]: 30.6 µM; GI50 [3]: 1.8 µM; TGI [3]: 3.97 µM; GI50 [4]: 1.91 µM; TGI [4]: 4.9 µM; GI50 [5]: 2.15 µM; TGI [5]: 6.23 µM; GI50 [6]: 2.43 µM; TGI [6]: 8.47 µM; GI50 [7]: 2.59 µM; TGI [7]: 11 µM; GI50 [8]: 11.8 µM; TGI [8]: 36 µM; GI50 [9]: 4.14 µM; TGI [9]: 15.6 µM; GI50 [10]: 2.7 µM; TGI [10]: 12.7 µM; GI50 [11]: 11.2 µM; TGI [11]: 27.3 µM; GI50 [12]: 2.92 µM; TGI [12]: 11.8 µM; GI50 [13]: 2.41 µM; TGI [13]: 11.6 µM; GI50 [14]: 2.82 µM; TGI [14]: 12.5 µM; GI50 [15]: 1.62 µM; TGI [15]: 3.69 µM; GI50 [16]: 2.35 µM; TGI [16]: 9.26 µM; GI50 [17]: 2.27 µM; TGI [17]: 7.65 µM; GI50 [18]: 3.2 µM; TGI [18]: 10.9 µM; GI50 [19]: 4.66 µM; TGI [19]: 18.4 µM; GI50 [20]: 2.19 µM; TGI [20]: 11.1 µM; GI50 [21]: 4.05 µM; TGI [21]: 18.5 µM; GI50 [22]: 1.4 µM; TGI [22]: 2.8 µM; GI50 [23]: 3.05 µM; TGI [23]: 11 µM; GI50 [24]: 1.85 µM; TGI [24]: 4.31 µM; GI50 [25]: 2.82 µM; TGI [25]: 13.3 µM; GI50 [26]: 1.63 µM; TGI [26]: 3.49 µM; GI50 [27]: 3.07 µM; TGI [27]: 10.6 µM; GI50 [28]: 2.37 µM; TGI [28]: 8.01 µM; GI50 [29]: 2.81 µM; TGI [29]: 14.3 µM; GI50 [30]: 1.6 µM; TGI [30]: 4.36 µM; GI50 [31]: 1.99 µM; TGI [31]: 4.74 µM; GI50 [32]: 1.96 µM; TGI [32]: 4.29 µM; GI50 [33]: 1.85 µM; TGI [33]: 5.47 µM; GI50 [34]: 4.01 µM; TGI [34]: 18.9 µM; GI50 [35]: 3.18 µM; TGI [35]: 10.6 µM; GI50 [36]: 4.48 µM; TGI [36]: 19.3 µM; GI50 [37]: 3.11 µM; TGI [37]: 14.6 µM; GI50 [38]: 2.04 µM; TGI [38]: 5.16 µM; GI50 [39]: 1.9 µM; TGI [39]: 5.37 µM; GI50 [40]: 3.99 µM; TGI [40]: 17.4 µM; GI50 [41]: 1.93 µM; TGI [41]: 5 µM; GI50 [42]: 3.04 µM; TGI [42]: 11.7 µM; GI50 [43]: 1.99 µM; TGI [43]: 5.23 µM; GI50 [44]: 1.67 µM; TGI [44]: 3.15 µM; GI50 [45]: 3.02 µM; TGI [45]: 13.1 µM; GI50 [46]: 1.53 µM; TGI [46]: 3.33 µM; GI50 [47]: 2.92 µM; TGI [47]: 11.2 µM; GI50 [48]: 5.93 µM; TGI [48]: 20.8 µM; GI50 [49]: 1.72 µM; TGI [49]: 4.03 µM; GI50 [50]: 3.45 µM; TGI [50]: 12.3 µM; GI50 [51]: 2.33 µM; TGI [51]: 8.66 µM; GI50 [52]: 1.85 µM; TGI [52]: 6.63 µM; GI50 [53]: 2.94 µM; TGI [53]: 14.1 µM; GI50 [54]: 2.8 µM; TGI [54]: 19.8 µM; GI50 [55]: 15.6 µM; TGI [55]: 32.2 µM; GI50 [56]: 1.96 µM; TGI [56]: 4.07 µM; GI50 [57]: 2.62 µM; TGI [57]: 10 µM; GI50 [58]: 1.7 µM; TGI [58]: 3.86 µM; GI50 [59]: 3.59 µM; TGI [59]: 15.8 µM
